Legend:
Type in all cases: ADME
[1] = target: T1, Solute carrier organic anion transporter family member 1B1 (Homo sapiens, UniProt Q9Y6L6); test: Inhibitors of transporters of clinical importance in the absorption and disposition of drugs, OATP1B1
T1 sequence (Q9Y6L6 whole entry): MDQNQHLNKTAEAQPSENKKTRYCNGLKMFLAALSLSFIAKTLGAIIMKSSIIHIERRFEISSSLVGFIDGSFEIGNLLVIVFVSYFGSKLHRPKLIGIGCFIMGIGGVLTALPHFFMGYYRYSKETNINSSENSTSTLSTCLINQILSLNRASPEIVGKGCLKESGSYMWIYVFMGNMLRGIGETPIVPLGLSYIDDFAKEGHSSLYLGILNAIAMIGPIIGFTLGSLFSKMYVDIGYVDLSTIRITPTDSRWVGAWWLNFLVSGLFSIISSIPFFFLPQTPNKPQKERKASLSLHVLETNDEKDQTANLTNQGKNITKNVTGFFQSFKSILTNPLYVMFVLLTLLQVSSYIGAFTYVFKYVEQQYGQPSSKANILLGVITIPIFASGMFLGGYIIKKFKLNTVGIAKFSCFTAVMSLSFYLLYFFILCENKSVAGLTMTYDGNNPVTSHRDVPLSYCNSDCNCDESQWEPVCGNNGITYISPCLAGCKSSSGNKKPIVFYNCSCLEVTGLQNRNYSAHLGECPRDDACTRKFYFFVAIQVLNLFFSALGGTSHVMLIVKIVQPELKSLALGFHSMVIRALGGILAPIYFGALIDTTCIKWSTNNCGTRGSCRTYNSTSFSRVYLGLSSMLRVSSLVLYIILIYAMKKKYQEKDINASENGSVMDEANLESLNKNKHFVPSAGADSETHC

[2] = target: T2, Solute carrier organic anion transporter family member 1A2 (Homo sapiens, UniProt P46721); test: Inhibitors of transporters of clinical importance in the absorption and disposition of drugs, OATP1A2
T2 sequence (P46721 whole entry): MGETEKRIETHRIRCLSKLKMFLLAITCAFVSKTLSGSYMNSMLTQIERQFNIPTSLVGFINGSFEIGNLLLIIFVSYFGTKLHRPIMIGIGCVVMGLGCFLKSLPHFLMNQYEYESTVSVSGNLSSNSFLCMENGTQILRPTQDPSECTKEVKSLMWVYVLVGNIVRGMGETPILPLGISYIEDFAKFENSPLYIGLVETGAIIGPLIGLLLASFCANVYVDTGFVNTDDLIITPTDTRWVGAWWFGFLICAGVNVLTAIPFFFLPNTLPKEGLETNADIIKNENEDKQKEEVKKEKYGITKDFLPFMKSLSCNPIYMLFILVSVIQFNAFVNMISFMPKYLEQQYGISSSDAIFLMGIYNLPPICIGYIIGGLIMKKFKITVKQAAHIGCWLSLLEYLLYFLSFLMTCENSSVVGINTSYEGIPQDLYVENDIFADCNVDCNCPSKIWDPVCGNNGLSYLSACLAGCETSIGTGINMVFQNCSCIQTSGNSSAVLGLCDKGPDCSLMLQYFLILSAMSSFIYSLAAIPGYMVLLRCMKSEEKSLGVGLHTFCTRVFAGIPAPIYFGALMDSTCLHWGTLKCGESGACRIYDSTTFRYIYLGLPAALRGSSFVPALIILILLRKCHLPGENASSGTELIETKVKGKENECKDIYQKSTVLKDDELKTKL

[3] = target: T3, ATP-binding cassette sub-family C member 2 (Homo sapiens, UniProt Q92887); test: Inhibitors of transporters of clinical importance in the absorption and disposition of drugs, MRP2
T3 sequence (Q92887 whole entry): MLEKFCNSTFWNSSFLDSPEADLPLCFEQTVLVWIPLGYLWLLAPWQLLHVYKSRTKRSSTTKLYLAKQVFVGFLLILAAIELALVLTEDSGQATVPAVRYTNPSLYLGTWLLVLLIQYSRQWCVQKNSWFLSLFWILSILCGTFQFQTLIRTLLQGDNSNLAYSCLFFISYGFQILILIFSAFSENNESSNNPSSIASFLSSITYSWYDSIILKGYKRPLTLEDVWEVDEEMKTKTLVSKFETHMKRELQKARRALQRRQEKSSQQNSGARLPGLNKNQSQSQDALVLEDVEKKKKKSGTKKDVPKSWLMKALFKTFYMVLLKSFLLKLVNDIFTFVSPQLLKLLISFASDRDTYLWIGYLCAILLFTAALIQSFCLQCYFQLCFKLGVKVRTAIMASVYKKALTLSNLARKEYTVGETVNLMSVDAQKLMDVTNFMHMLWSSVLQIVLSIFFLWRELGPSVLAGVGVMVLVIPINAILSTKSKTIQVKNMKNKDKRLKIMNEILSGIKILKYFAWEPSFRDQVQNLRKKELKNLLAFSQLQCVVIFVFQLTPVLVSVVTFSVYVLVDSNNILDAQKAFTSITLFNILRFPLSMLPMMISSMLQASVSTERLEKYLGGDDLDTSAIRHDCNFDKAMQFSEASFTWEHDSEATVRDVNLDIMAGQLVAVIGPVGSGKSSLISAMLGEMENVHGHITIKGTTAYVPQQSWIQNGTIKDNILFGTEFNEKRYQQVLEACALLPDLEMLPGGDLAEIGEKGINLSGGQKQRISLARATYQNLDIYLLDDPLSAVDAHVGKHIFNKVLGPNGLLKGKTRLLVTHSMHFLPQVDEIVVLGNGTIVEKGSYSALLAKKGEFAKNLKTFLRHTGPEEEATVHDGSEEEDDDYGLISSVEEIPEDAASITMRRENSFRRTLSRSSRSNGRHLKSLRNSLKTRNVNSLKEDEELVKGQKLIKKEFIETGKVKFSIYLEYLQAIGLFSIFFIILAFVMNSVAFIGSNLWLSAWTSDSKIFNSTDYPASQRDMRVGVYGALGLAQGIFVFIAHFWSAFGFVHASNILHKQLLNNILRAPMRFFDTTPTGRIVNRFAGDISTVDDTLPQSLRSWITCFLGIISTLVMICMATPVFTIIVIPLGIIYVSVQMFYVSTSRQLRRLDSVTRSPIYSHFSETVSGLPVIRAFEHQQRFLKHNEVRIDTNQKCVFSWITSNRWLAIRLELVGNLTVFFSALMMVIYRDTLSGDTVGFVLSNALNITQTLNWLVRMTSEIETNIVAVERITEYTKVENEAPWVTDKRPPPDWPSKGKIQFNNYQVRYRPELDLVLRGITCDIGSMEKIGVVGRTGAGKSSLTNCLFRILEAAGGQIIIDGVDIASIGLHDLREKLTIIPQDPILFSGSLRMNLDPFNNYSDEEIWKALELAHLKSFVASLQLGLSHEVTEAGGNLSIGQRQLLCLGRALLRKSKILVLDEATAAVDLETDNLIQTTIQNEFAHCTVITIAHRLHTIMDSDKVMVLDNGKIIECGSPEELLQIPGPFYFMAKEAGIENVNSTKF

[4] = target: T4, ATP-binding cassette sub-family C member 3 (Homo sapiens, UniProt O15438); test: Inhibitors of transporters of clinical importance in the absorption and disposition of drugs, MPR3
T4 sequence (O15438 whole entry): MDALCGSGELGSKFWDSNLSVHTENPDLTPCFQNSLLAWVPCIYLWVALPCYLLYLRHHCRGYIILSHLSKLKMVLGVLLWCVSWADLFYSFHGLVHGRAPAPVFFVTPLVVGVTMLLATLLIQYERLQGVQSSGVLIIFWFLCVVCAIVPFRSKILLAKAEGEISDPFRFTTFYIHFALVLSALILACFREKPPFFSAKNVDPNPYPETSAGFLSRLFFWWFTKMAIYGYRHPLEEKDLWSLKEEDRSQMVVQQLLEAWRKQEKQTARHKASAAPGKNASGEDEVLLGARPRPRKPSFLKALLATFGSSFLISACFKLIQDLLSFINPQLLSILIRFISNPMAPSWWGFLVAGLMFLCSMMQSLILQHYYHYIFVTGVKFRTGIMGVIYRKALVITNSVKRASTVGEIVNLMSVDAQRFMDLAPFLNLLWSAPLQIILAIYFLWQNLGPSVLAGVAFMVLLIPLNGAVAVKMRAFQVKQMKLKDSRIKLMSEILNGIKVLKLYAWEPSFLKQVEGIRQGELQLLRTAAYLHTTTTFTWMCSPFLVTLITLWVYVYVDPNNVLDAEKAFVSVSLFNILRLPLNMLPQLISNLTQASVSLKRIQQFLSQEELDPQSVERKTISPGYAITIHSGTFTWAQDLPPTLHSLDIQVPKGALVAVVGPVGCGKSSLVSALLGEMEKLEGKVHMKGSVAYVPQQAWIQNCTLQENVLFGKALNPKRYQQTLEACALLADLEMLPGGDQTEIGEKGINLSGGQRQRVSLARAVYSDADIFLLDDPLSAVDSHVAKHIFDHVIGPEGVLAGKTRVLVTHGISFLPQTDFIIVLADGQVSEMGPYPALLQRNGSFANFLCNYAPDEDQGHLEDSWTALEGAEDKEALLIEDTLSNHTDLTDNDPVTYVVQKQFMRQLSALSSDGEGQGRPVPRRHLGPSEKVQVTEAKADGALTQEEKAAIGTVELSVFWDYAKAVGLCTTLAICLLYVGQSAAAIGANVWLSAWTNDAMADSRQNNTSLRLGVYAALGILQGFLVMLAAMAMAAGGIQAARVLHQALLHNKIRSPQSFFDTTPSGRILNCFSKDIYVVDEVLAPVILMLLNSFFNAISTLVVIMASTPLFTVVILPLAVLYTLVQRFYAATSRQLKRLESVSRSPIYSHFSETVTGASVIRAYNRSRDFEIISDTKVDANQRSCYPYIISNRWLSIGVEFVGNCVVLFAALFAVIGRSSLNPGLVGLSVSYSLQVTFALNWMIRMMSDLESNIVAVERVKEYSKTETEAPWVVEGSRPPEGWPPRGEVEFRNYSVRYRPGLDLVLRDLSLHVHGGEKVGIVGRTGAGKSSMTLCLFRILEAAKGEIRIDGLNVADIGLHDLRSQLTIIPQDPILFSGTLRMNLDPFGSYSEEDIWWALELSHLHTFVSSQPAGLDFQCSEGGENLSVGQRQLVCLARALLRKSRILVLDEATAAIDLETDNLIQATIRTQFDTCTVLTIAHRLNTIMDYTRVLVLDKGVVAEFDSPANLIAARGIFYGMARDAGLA

[5] = target: T1, Solute carrier organic anion transporter family member 1B1; test: Substrates of transporters of clinical importance in the absorption and disposition of drugs, OATP1B1
[6] = target: T5, Solute carrier organic anion transporter family member 1B3 (Homo sapiens, UniProt Q9NPD5); test: Substrates of transporters of clinical importance in the absorption and disposition of drugs, OATP1B3
T5 sequence (Q9NPD5 whole entry): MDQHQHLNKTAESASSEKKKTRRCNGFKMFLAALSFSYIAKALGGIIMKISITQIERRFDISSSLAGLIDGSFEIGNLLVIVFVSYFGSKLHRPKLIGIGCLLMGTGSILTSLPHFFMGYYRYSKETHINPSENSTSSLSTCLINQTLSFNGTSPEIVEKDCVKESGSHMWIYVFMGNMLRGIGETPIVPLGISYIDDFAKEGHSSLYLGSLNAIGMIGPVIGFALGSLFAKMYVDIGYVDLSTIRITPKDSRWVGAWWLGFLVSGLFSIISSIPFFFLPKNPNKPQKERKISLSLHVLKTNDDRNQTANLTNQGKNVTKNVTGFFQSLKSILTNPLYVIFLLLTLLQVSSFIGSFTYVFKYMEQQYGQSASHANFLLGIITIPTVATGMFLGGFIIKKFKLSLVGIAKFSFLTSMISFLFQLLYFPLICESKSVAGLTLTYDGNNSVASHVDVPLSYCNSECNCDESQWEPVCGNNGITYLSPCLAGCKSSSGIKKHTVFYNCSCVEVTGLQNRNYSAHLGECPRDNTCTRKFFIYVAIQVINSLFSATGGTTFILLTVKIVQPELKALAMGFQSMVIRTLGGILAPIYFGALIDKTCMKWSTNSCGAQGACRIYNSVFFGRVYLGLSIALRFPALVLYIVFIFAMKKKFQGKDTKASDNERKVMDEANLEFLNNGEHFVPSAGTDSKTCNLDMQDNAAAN

[7] = target: T4, ATP-binding cassette sub-family C member 3; test: Substrates of transporters of clinical importance in the absorption and disposition of drugs, MPR3
[8] = target: T6, Broad substrate specificity ATP-binding cassette transporter ABCG2 (Homo sapiens, UniProt Q9UNQ0); test: Inhibitors of transporters of clinical importance in the absorption and disposition of drugs, BCRP
T6 sequence (Q9UNQ0 whole entry): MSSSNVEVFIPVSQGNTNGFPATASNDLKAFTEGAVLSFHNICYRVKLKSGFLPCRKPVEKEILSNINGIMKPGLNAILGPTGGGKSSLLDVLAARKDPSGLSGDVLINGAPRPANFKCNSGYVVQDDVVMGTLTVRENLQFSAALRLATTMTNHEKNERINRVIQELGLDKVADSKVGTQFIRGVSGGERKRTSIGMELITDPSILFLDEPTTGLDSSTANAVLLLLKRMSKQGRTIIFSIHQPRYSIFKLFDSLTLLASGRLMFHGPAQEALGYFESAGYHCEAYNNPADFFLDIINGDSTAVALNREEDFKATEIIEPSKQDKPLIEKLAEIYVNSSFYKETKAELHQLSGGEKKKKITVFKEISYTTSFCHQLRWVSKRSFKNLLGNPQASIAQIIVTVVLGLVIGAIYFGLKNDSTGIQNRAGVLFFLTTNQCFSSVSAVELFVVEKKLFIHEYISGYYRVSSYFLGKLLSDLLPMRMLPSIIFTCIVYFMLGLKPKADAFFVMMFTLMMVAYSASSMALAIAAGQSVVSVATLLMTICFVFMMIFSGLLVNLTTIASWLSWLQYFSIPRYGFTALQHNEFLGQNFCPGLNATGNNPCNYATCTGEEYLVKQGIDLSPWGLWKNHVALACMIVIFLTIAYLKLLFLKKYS

[9] = target: T2, Solute carrier organic anion transporter family member 1A2; test: Substrates of transporters of clinical importance in the absorption and disposition of drugs, OATP1A2
[10] = target: T7, Solute carrier organic anion transporter family member 2B1 (Homo sapiens, UniProt O94956); test: Substrates of transporters of clinical importance in the absorption and disposition of drugs, OATP2B1
T7 sequence (O94956 whole entry): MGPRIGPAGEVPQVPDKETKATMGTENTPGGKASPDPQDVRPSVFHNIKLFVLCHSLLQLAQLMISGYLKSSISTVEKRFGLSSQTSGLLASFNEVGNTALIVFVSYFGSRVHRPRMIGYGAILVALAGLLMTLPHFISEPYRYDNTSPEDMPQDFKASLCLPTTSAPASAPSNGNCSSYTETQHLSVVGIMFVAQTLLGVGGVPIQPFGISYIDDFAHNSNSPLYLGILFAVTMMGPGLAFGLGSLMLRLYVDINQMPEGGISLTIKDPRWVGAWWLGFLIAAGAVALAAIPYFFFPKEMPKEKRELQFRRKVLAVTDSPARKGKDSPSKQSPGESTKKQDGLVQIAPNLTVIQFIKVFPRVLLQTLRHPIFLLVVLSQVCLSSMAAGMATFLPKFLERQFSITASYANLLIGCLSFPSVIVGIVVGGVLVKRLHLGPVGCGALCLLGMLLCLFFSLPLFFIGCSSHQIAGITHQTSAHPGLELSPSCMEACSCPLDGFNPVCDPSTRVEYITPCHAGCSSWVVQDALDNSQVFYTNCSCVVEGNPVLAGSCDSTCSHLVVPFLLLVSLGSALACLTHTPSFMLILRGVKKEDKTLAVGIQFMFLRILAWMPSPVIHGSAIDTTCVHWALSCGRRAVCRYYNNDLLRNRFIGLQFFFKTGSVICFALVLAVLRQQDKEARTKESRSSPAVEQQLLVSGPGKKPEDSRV

[11] = target: T6, Broad substrate specificity ATP-binding cassette transporter ABCG2; test: Substrates of transporters of clinical importance in the absorption and disposition of drugs, BCRP
[12] = target: T3, ATP-binding cassette sub-family C member 2; test: Substrates of transporters of clinical importance in the absorption and disposition of drugs, MRP2
[13] = target: T8, ATP-binding cassette sub-family C member 4 (Homo sapiens, UniProt O15439); test: Substrates of transporters of clinical importance in the absorption and disposition of drugs, MRP4
T8 sequence (O15439 whole entry): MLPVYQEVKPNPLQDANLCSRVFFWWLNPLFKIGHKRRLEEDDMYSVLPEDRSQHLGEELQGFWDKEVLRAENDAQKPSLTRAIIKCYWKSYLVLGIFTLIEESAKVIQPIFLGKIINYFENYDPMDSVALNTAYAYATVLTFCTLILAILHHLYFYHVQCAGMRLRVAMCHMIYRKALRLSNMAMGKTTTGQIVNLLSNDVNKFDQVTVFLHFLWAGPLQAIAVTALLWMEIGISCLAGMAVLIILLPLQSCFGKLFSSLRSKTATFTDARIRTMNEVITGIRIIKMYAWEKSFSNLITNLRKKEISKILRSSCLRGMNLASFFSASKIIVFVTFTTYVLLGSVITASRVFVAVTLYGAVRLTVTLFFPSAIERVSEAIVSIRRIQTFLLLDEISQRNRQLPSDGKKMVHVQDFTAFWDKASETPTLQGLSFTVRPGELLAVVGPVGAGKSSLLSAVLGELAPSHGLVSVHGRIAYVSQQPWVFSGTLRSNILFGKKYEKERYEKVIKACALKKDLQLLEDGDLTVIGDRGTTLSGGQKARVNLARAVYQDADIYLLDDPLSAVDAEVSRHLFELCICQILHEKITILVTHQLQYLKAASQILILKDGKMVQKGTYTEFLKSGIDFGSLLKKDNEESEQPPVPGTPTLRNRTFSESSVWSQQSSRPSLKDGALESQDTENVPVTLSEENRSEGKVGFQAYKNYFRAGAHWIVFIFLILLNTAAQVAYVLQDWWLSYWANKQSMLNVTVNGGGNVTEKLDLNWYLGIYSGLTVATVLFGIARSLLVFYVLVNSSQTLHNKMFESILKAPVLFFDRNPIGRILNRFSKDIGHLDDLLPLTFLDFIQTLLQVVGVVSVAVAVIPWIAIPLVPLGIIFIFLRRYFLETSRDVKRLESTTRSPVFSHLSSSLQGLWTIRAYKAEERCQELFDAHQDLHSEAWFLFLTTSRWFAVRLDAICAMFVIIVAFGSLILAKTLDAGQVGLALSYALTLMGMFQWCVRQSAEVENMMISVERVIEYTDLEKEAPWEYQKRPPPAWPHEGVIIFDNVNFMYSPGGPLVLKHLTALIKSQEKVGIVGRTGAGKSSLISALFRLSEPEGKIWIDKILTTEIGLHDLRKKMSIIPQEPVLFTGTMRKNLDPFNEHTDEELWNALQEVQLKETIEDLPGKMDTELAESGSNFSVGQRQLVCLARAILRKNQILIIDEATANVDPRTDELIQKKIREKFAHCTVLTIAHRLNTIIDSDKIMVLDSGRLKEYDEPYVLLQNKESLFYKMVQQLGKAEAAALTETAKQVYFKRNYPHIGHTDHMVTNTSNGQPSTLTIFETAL

SMILES: CC(C)(C)NC(=O)[C@@H]1C[C@@H]2CCCC[C@@H]2CN1C[C@@H](O)[C@H](Cc1ccccc1)NC(=O)[C@H](CC(N)=O)NC(=O)c1ccc2ccccc2n1
- Activity [1]: transporter inhibitor
- Activity [2]: transporter inhibitor

SMILES: CC(C)Nc1cccnc1N1CCN(C(=O)c2cc3cc(NS(C)(=O)=O)ccc3[nH]2)CC1 [DELAVIRDINE]
- Activity [3]: transporter inhibitor
- Activity [4]: transporter inhibitor

SMILES: O=C1Nc2ccc(Cl)cc2[C@@](C#CC2CC2)(C(F)(F)F)O1 [EFAVIRENZ]
- Activity [3]: transporter inhibitor
- Activity [4]: transporter inhibitor

SMILES: C[C@]12CC[C@@H]3c4ccc(O)cc4CC[C@H]3[C@@H]1CC[C@@H]2O[C@@H]1O[C@H](C(=O)O)[C@@H](O)[C@H](O)[C@H]1O [ESTRADIOL 17B GLUCURONIDE]
- Activity [5]: transporter substrate
- Activity [6]: transporter substrate
- Activity [7]: transporter substrate

SMILES: C[C@]12CC[C@@H]3c4ccc(O)cc4CC[C@H]3[C@@H]1CC[C@@H]2O [ESTRADIOL]
- Activity [8]: transporter inhibitor

SMILES: C[C@]12CC[C@@H]3c4ccc(O)cc4CC[C@H]3[C@@H]1CCC2=O [ESTRONE]
- Activity [8]: transporter inhibitor

SMILES: CC(C)(C(=O)O)c1ccc(C(O)CCCN2CCC(C(O)(c3ccccc3)c3ccccc3)CC2)cc1 (stereo unspecified) [FEXOFENADINE]
- Activity [6]: transporter substrate
- Activity [9]: transporter substrate
- Activity [10]: transporter substrate
- Activity [7]: transporter substrate

SMILES: COc1ccc2c3c([nH]c2c1)[C@H](C=C(C)C)N1C(=O)[C@@H]2CCCN2C(=O)[C@@H]1C3 [FUMITREMORGIN]
- Activity [8]: transporter inhibitor

SMILES: CN(Cc1cnc2nc(N)nc(N)c2n1)c1ccc(C(=O)N[C@@H](CCC(=O)O)C(=O)O)cc1 [METHOTREXATE]
- Activity [9]: transporter substrate
- Activity [11]: transporter substrate
- Activity [12]: transporter substrate
- Activity [7]: transporter substrate
- Activity [13]: transporter substrate

Reference: ChEMBL document CHEMBL1743141, “Membrane transporters in drug development” (Nat Rev Drug Discov, 2010)
